Source: PubChem BioAssay AID192 (DTP/NCI, 2004)
“And” between values parts separate entries of the source, which are not always exact repeats. Equal entries are not always repeated. Inconclusive results and toxic doses are left out.

System: BDF1 mice, B16 melanoma ip, median survival T/C
Assay: NCI In Vivo Anticancer Drug Screen. Data for tumor model B16 Melanoma (intraperitoneal) in B6D2F1 (BDF1) mice
Settings: endpoint: median survival time, higher = longer survival
Procedure, shortened: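 Antitumor activity is assessed in mice bearing a transplanted tumor, with survival or tumor size compared against vehicle-dosed controls and expressed as T/C.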

[1] = dose: 12.5 mg/kg/injection, schedule: Q01DX009 (ip), vehicle: Klucel (hydroxypropylcellulose) (HPC)
[2] = dose: 25.0 mg/kg/injection, schedule: Q01DX009 (ip), vehicle: Klucel (hydroxypropylcellulose) (HPC)
[3] = dose: 50.0 mg/kg/injection, schedule: Q01DX009 (ip), vehicle: Klucel (hydroxypropylcellulose) (HPC)
[4] = dose: 100.0 mg/kg/injection, schedule: Q01DX009 (ip), vehicle: Klucel (hydroxypropylcellulose) (HPC)
[5] = dose: 5.0 mg/kg/injection, schedule: Q01DX009 (ip), vehicle: saline
[6] = dose: 10.0 mg/kg/injection, schedule: Q01DX009 (ip), vehicle: saline
[7] = dose: 100.0 mg/kg/injection, schedule: Q01DX009 (ip), vehicle: saline with Tween-80
[8] = dose: 200.0 mg/kg/injection, schedule: Q01DX009 (ip), vehicle: saline with Tween-80
[9] = dose: 50.0 mg/kg/injection, schedule: Q04DX003 (ip), vehicle: saline with Tween-80
[10] = dose: 100.0 mg/kg/injection, schedule: Q04DX003 (ip), vehicle: saline with Tween-80
[11] = dose: 200.0 mg/kg/injection, schedule: Q01DX009 (ip), vehicle: Klucel (hydroxypropylcellulose) (HPC)
[12] = dose: 400.0 mg/kg/injection, schedule: Q01DX009 (ip), vehicle: Klucel (hydroxypropylcellulose) (HPC)
[13] = dose: 25.0 mg/kg/injection, schedule: Q01DX009 (ip), vehicle: saline

Structure (SMILES): COc1cccc2c1C(=O)c1c(O)c3c(c(O)c1C2=O)C[C@@](O)(/C(C)=N\NC=O)C[C@@H]3OC1CC(N)C(O)C(C)O1 (stereo partly drawn)
- T/C (dose: 0.38 mg/kg/injection, schedule: Q01DX009 (ip), vehicle: saline): 112 % of control
- T/C (dose: 0.75 mg/kg/injection, schedule: Q01DX009 (ip), vehicle: saline): 117 % of control
- T/C (dose: 1.5 mg/kg/injection, schedule: Q01DX009 (ip), vehicle: saline): 150 % of control
- T/C (dose: 3.0 mg/kg/injection, schedule: Q01DX009 (ip), vehicle: saline): 174 % of control
- T/C (dose: 6.0 mg/kg/injection, schedule: Q01DX009 (ip), vehicle: saline): 216 % of control
- T/C (dose: 12.0 mg/kg/injection, schedule: Q01DX009 (ip), vehicle: saline): 211 % of control

Structure (SMILES): OCCCCc1nccc2c1[nH]c1ccccc12
- T/C [1]: 97 % of control
- T/C [2]: 95 % of control
- T/C [3]: 95 % of control
- T/C [4]: 96 % of control

Structure (SMILES): Nc1ccc2nc3ccc(=O)cc-3n(-c3ccccc3)c2c1
- T/C (dose: 0.5 mg/kg/injection, schedule: Q01DX009 (ip), vehicle: saline): 109 % of control
- T/C (dose: 1.0 mg/kg/injection, schedule: Q01DX009 (ip), vehicle: saline): 104 % of control
- T/C (dose: 2.5 mg/kg/injection, schedule: Q01DX009 (ip), vehicle: saline): 111 % of control
- T/C [5]: 104 % of control
- T/C [6]: 104 % of control

Structure (SMILES): CCN(CC)c1ccc(N)cc1
- T/C [5]: 109 % of control
- T/C [6]: 95 % of control
- T/C (dose: 20.0 mg/kg/injection, schedule: Q01DX009 (ip), vehicle: saline): 95 % of control

Structure (SMILES): CSc1nc(C)cc(Cl)n1
- T/C (dose: 50.0 mg/kg/injection, schedule: Q01DX009 (ip), vehicle: saline with Tween-80): 104 % of control
- T/C [7]: 113 % of control
- T/C [8]: 90 % of control

Structure (SMILES): COC(=O)Nc1nc2ccc(C(=O)c3cccs3)cc2[nH]1
- T/C (dose: 20.0 mg/kg/injection, schedule: Q01DX015 (ip), vehicle: saline): 97 % of control
- T/C (dose: 50.0 mg/kg/injection, schedule: Q04DX003 (ip), vehicle: other): 103 % of control
- T/C [9]: 180 % of control
- T/C (dose: 50.0 mg/kg/injection, schedule: Q05DX005 (ip), vehicle: saline): 165 % of control
- T/C (dose: 60.0 mg/kg/injection, schedule: Q05DX005 (ip), vehicle: saline): 195 % of control
- T/C (dose: 70.0 mg/kg/injection, schedule: Q05DX005 (ip), vehicle: saline): 191 % of control
- T/C (dose: 75.0 mg/kg/injection, schedule: Q04DX003 (ip), vehicle: other): 121 % of control
- T/C [10]: 211 % of control

Structure (SMILES): CC1(C)N=C(N)N=C(N)N1c1ccc(OCc2ccc(C(=O)Nc3cccc(S(=O)(=O)F)c3)cc2)c(Cl)c1
- T/C (dose: 12.5 mg/kg/injection, schedule: Q04DX003 (ip), vehicle: saline with Tween-80): 119 % of control
- T/C (dose: 50.0 mg/kg/injection, schedule: Q04DX003 (ip), vehicle: saline): 166 % of control

Structure (SMILES): [Cl][Ge]([c]1ccccc1)([c]1ccccc1)[c]1ccccc1
- T/C [4]: 96 % of control
- T/C [11]: 96 % of control
- T/C [12]: 100 % of control

Structure (SMILES): CCOC(=O)C(=O)c1c(C)[nH]c2ccccc12
- T/C [4]: 113 % of control
- T/C [11]: 106 % of control
- T/C [12]: 106 % of control

Structure (SMILES): CC(CCc1ccccc1)NN (stereo not drawn)
- T/C (dose: 3.12 mg/kg/injection, schedule: Q01DX009 (ip), vehicle: saline): 122 % of control
- T/C (dose: 6.25 mg/kg/injection, schedule: Q01DX009 (ip), vehicle: saline): 112 % of control and 116 % of control
- T/C (dose: 12.5 mg/kg/injection, schedule: Q01DX009 (ip), vehicle: saline): 113 % of control
- T/C [13]: 103 % of control and 112 % of control

Structure (SMILES): Cc1c2c(ccc3ccccc32)c[n+]2ccccc12
- T/C (dose: 1.56 mg/kg/injection, schedule: Q01DX009 (ip), vehicle: suspension in saline): 98 % of control
- T/C (dose: 3.12 mg/kg/injection, schedule: Q01DX009 (ip), vehicle: suspension in saline): 101 % of control
- T/C (dose: 6.25 mg/kg/injection, schedule: Q01DX009 (ip), vehicle: suspension in saline): 106 % of control
- T/C (dose: 12.5 mg/kg/injection, schedule: Q01DX009 (ip), vehicle: suspension in saline): 103 % of control

Structure (SMILES): Cc1ccc(N=Nc2c(O)ccc3ccccc23)c(C)c1
- T/C [3]: 92 % of control
- T/C [12]: 150 % of control

Structure (SMILES): O=[N+]([O-])c1ccc(C(O)C=C(C(F)(F)F)C(F)(F)F)cc1 (stereo not drawn)
- T/C [1]: 93 % of control
- T/C [2]: 89 % of control

Structure (SMILES): NC(=O)CC1=NCCc2ccccc21
- T/C [13]: 105 % of control
- T/C (dose: 50.0 mg/kg/injection, schedule: Q01DX009 (ip), vehicle: saline): 97 % of control
- T/C (dose: 100.0 mg/kg/injection, schedule: Q01DX009 (ip), vehicle: saline): 91 % of control and 105 % of control

Structure (SMILES): CCOC(=O)C1CC(c2ccccc2)=NN1c1ccccc1 (stereo not drawn)
- T/C [3]: 97 % of control
- T/C [4]: 104 % of control
- T/C [11]: 100 % of control
- T/C [12]: 97 % of control

Structure (SMILES): O=C(Nc1ccccc1)OCC(CN1CCCCC1)OC(=O)Nc1ccccc1 (stereo not drawn)
- T/C [9]: 104 % of control
- T/C [10]: 102 % of control
- T/C (dose: 200.0 mg/kg/injection, schedule: Q04DX003 (ip), vehicle: saline with Tween-80): 100 % of control

Structure (SMILES): Nc1cc(S(N)(=O)=O)ccc1SSc1ccc(S(N)(=O)=O)cc1N
- T/C [7]: 95 % of control
- T/C [8]: 93 % of control

Structure (SMILES): CC1CCC(=C(c2ccccc2)c2ccccc2)C(C)N1C (stereo not drawn)
- T/C (dose: 25.0 mg/kg/injection, schedule: Q04DX003 (ip), vehicle: saline with Tween-80): 105 % of control
- T/C [9]: 93 % of control

Structure (SMILES): CCN(CC)CCOC(=O)Cc1ccccc1
- T/C [4]: 106 % of control
- T/C [11]: 103 % of control
- T/C [12]: 103 % of control

Structure (SMILES): O=C(NNCc1ccccc1)c1ccccn1
- T/C (dose: 6.25 mg/kg/injection, schedule: Q01DX009 (ip), vehicle: Klucel (hydroxypropylcellulose) (HPC)): 90 % of control
- T/C [2]: 90 % of control
- T/C [3]: 88 % of control and 100 % of control

Structure (SMILES): CCN(CC)CCCC(C)Nc1cc(C)nc(Nc2nc3cc(Cl)c(Cl)cc3[nH]2)n1 (stereo not drawn)
- T/C (dose: 1.25 mg/kg/injection, schedule: Q01DX009 (ip), vehicle: Klucel (hydroxypropylcellulose) (HPC)): 94 % of control
- T/C (dose: 2.5 mg/kg/injection, schedule: Q01DX009 (ip), vehicle: Klucel (hydroxypropylcellulose) (HPC)): 95 % of control
- T/C (dose: 5.0 mg/kg/injection, schedule: Q01DX009 (ip), vehicle: Klucel (hydroxypropylcellulose) (HPC)): 96 % of control
- T/C (dose: 10.0 mg/kg/injection, schedule: Q01DX009 (ip), vehicle: Klucel (hydroxypropylcellulose) (HPC)): 91 % of control
